± gives the expanded uncertainty stated by the source.
Experiment: xn = mol fraction of the nth substance listed
Settings: for surface tension liquid-gas: Drop volume; for viscosity / speed of sound / mass density: 99 kPa, Liquid; for viscosity: Capillary tube (Ostwald / Ubbelohde) method; for speed of sound: Frequency=3 MHz, Sing-around technique in a fixed-path interferometer; for mass density: Vibrating tube method

CCCC[n+]1ccccc1.F[B-](F)(F)F [1-butylpyridinium tetrafluoroborate] + O
Settings	mass density [kg/m3]	speed of sound [m/s]	surface tension liquid-gas [mN/m]	viscosity [mPa·s]
313.15 K, x1 = 0.0115	–	–	55.5 ± 0.6	–
313.15 K, x1 = 0.0165	1021.2 ± 1	1560 ± 1.2	–	–
313.15 K, x1 = 0.0185	–	–	53 ± 0.6	–
313.15 K, x1 = 0.0271	–	–	51.6 ± 0.6	–
313.15 K, x1 = 0.0372	–	–	50.3 ± 0.5	–
313.15 K, x1 = 0.0379	1049.2 ± 1	1576.8 ± 1.2	–	–
313.15 K, x1 = 0.0456	–	–	49.9 ± 0.5	–
313.15 K, x1 = 0.047	–	–	–	0.845 ± 0.068
313.15 K, x1 = 0.0863	1089.2 ± 1	1590.3 ± 1.2	–	–
313.15 K, x1 = 0.0942	–	–	48.5 ± 0.5	–
313.15 K, x1 = 0.095	–	–	–	1.16 ± 0.093
313.15 K, x1 = 0.101	1097.8 ± 1	1591.9 ± 1.2	–	–
313.15 K, x1 = 0.134	1113.3 ± 1	1593.4 ± 1.2	–	–
313.15 K, x1 = 0.1907	–	–	47.9 ± 0.5	–
313.15 K, x1 = 0.2001	–	–	–	1.741 ± 0.14
313.15 K, x1 = 0.243	1144.4 ± 1	1590.6 ± 1.3	–	–
313.15 K, x1 = 0.2846	–	–	47.7 ± 0.5	–
313.15 K, x1 = 0.289	1152.9 ± 1	1587.9 ± 1.3	–	–
313.15 K, x1 = 0.2912	–	–	–	2.929 ± 0.23
313.15 K, x1 = 0.34	–	–	47.6 ± 0.5	–
313.15 K, x1 = 0.3456	1161.3 ± 1	1585 ± 1.3	–	–
313.15 K, x1 = 0.3866	–	–	47.6 ± 0.5	–
313.15 K, x1 = 0.4015	–	–	–	5.101 ± 0.41
313.15 K, x1 = 0.4217	1170.1 ± 1	1580.8 ± 1.3	–	–
313.15 K, x1 = 0.4807	–	–	–	8.106 ± 0.65
313.15 K, x1 = 0.486	–	–	47 ± 0.5	–
313.15 K, x1 = 0.5485	1180.9 ± 1	1575.2 ± 1.4	–	–
313.15 K, x1 = 0.5777	–	–	46.6 ± 0.5	–
313.15 K, x1 = 0.5815	–	–	–	11.33 ± 0.91
313.15 K, x1 = 0.6029	1184.6 ± 1	1573.3 ± 1.4	–	–
313.15 K, x1 = 0.6641	–	–	–	15.02 ± 1.2
313.15 K, x1 = 0.6943	–	–	46.2 ± 0.5	–
313.15 K, x1 = 0.7232	1191.6 ± 1	1569.9 ± 1.4	–	–
313.15 K, x1 = 0.7779	–	–	45.9 ± 0.5	–
313.15 K, x1 = 0.7855	–	–	–	26.33 ± 2.1
313.15 K, x1 = 0.8005	1195.3 ± 1	1568.4 ± 1.5	–	–
313.15 K, x1 = 0.835	–	–	45.7 ± 0.5	–
313.15 K, x1 = 0.8575	1197.8 ± 1	1567.3 ± 1.5	–	–
313.15 K, x1 = 0.8875	–	–	–	44.04 ± 3.5
313.15 K, x1 = 0.925	–	–	45.7 ± 0.5	–
313.15 K, x1 = 0.9305	–	–	–	53.39 ± 4.3
313.15 K, x1 = 0.9315	1200.9 ± 1.1	1566.3 ± 1.5	–	–
313.15 K, x1 = 0.9705	–	–	–	63.74 ± 5.1
313.15 K, x1 = 1	1203.7 ± 1.1	1565.6 ± 1.6	45.7 ± 0.5	71.1 ± 5.7
323.15 K, x1 = 0.0115	–	–	54.5 ± 0.6	–
323.15 K, x1 = 0.0165	1016.5 ± 1	1561.9 ± 1.2	–	–
323.15 K, x1 = 0.0185	–	–	52 ± 0.6	–
323.15 K, x1 = 0.0271	–	–	50.5 ± 0.5	–
323.15 K, x1 = 0.0372	–	–	49.5 ± 0.5	–
323.15 K, x1 = 0.0379	1043.9 ± 1	1571.9 ± 1.2	–	–
323.15 K, x1 = 0.0456	–	–	48.7 ± 0.5	–
323.15 K, x1 = 0.047	–	–	–	0.708 ± 0.057
323.15 K, x1 = 0.0863	1083 ± 1	1577.9 ± 1.2	–	–
323.15 K, x1 = 0.0942	–	–	47.7 ± 0.5	–
323.15 K, x1 = 0.095	–	–	–	0.867 ± 0.07
323.15 K, x1 = 0.101	1091.5 ± 1	1577.7 ± 1.2	–	–
323.15 K, x1 = 0.134	1106.6 ± 1	1576.8 ± 1.2	–	–
323.15 K, x1 = 0.1907	–	–	47.1 ± 0.5	–
323.15 K, x1 = 0.2001	–	–	–	1.418 ± 0.11
323.15 K, x1 = 0.243	1137.2 ± 1	1569.9 ± 1.3	–	–
323.15 K, x1 = 0.2846	–	–	46.9 ± 0.5	–
323.15 K, x1 = 0.289	1145.6 ± 1	1566.7 ± 1.3	–	–
323.15 K, x1 = 0.2912	–	–	–	2.295 ± 0.18
323.15 K, x1 = 0.34	–	–	46.6 ± 0.5	–
323.15 K, x1 = 0.3456	1153.8 ± 1	1562.9 ± 1.3	–	–
323.15 K, x1 = 0.3866	–	–	46.4 ± 0.5	–
323.15 K, x1 = 0.4015	–	–	–	3.991 ± 0.32
323.15 K, x1 = 0.4217	1162.6 ± 1	1558.9 ± 1.3	–	–
323.15 K, x1 = 0.4807	–	–	–	5.631 ± 0.45
323.15 K, x1 = 0.486	–	–	46.1 ± 0.5	–
323.15 K, x1 = 0.5485	1173.4 ± 1	1553.2 ± 1.4	–	–
323.15 K, x1 = 0.5777	–	–	45.8 ± 0.5	–
323.15 K, x1 = 0.5815	–	–	–	7.929 ± 0.64
323.15 K, x1 = 0.6029	1177.2 ± 1	1551.3 ± 1.4	–	–
323.15 K, x1 = 0.6641	–	–	–	10.77 ± 0.86
323.15 K, x1 = 0.6943	–	–	45.6 ± 0.5	–
323.15 K, x1 = 0.7232	1184.2 ± 1	1548 ± 1.4	–	–
323.15 K, x1 = 0.7779	–	–	45.3 ± 0.5	–
323.15 K, x1 = 0.7855	–	–	–	18.47 ± 1.5
323.15 K, x1 = 0.8005	1188 ± 1	1546.4 ± 1.5	–	–
323.15 K, x1 = 0.835	–	–	45.1 ± 0.5	–
323.15 K, x1 = 0.8575	1190.6 ± 1	1545.2 ± 1.5	–	–
323.15 K, x1 = 0.8875	–	–	–	27.32 ± 2.2
323.15 K, x1 = 0.925	–	–	45.1 ± 0.5	–
323.15 K, x1 = 0.9305	–	–	–	34.39 ± 2.8
323.15 K, x1 = 0.9315	1193.8 ± 1.1	1544.1 ± 1.5	–	–
323.15 K, x1 = 0.9705	–	–	–	40.41 ± 3.2
323.15 K, x1 = 1	1196.7 ± 1.1	1543.5 ± 1.6	45.1 ± 0.5	45.56 ± 3.7

Reference: the NIST ThermoML archive (doi:10.1016/j.jct.2016.04.003)
